Measured values published in publication PMC11892739, “Site-specific molecular glues for the 14-3-3/Tau pS214 protein–protein interaction via reversible covalent imine tethering” (RSC Medicinal Chemistry, 2025).

Columns and labels:
[1] = target: T1, 14-3-3γ/Tau pS214 complex (Homo sapiens, UniProt P61981); experiment: Differential scanning fluorimetry of 14-3-3γ with Tau pS214 peptide and compounds; type: binding; conditions: compound 30 equiv., Tau pS214 10 equiv.
T1 construct: made in house; host or cells: NiCo21 (DE3) E. coli
T1 sequence (P61981 whole entry, other chains not shown): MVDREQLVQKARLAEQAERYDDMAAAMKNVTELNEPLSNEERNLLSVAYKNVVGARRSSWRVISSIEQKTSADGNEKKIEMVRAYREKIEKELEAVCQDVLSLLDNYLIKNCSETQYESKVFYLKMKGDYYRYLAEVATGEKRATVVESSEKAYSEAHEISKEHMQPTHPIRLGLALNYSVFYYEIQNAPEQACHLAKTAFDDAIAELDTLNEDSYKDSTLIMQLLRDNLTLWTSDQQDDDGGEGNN
Method: (§1) Fig. 5 a Phospho-site selective 14-3-3/Tau PPI stabilization. b SF250μM of selected compounds for stabilization of the 14-3-3γ complex with Tau pS214 and Tau pS324 peptides based on the internal DMSO reference. Mean of two separately performed experiments (see ESI ^† Fig. S9 for the corresponding binding curves). c Differential scanning fluorimetry assay results. Identified melting temperatures (Tm) of 14-3-3γ in the presence of the Tau pS214 or pS324 peptide and compounds 1 and 18. […]
(§2) chromatography (HisTrap high performance cartridges, Cytiva). […] Dialyzed protein was concentrated to ∼40 mg/mL, analyzed by Q -Tof LC/MS, and aliquots were flash -frozen for storage at −80 °C. […]
(§3) DSF was performed using 40 µl samples containing 2.5 µM 14 -3-3ζ, 25 µM Tau peptide (Tau pS2, Tau pS214 or Tau pS324), […] (1% DMSO) and 5x ProteoOrange (Lumiprobe, 5000x stock in DMSO) in 10 mM HEPES, 150 mM NaCl, 50 µM TCEP (pH 7.4). […] Fluorescence intensity was determined using excitation ( λem=525/20 nm) and emission ( λex=570/20 nm) filters.
(§4) Based on these melting curves, the negative derivative melting curve is obtained from which the melting temperature Tm was determined. All described melting temperatures are based on two or three independent experiments, from which the average and standard deviations were determined. […]

[2] = target: T2, 14-3-3γ/Tau pS324 complex (Homo sapiens, UniProt P61981); experiment: Differential scanning fluorimetry of 14-3-3γ with Tau pS324 peptide and compounds; type: binding; conditions: compound 30 equiv., Tau pS324 10 equiv.
T2 construct: made in house; host or cells: NiCo21 (DE3) E. coli
T2 sequence (P61981 whole entry, other chains not shown): as above
Method: as §1, §2, §3, §4

Compound: CCc1ccc(-c2nccn2-c2ccc(C=O)c(Br)c2)cc1 [Compound 18]
- increase in 14-3-3γ melting temperature on addition of compound, Tau pS214 complex [1]: ~1.7 °C
- increase in 14-3-3γ melting temperature on addition of compound, Tau pS324 complex [2]: ~0.2 °C

Compound: O=Cc1ccc(-n2ccnc2-c2ccccc2)cc1Br [Compound 1]
- increase in 14-3-3γ melting temperature on addition of compound, Tau pS214 complex [1]: ~0.6 °C
- increase in 14-3-3γ melting temperature on addition of compound, Tau pS324 complex [2]: ~0.6 °C
